PubChem BioAssay (NCI)
Where “and” joins values, the source holds several entries; their conditions need not be identical. Equal entries are not always repeated.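 Growth conditions: 96-well plates. Treatment: test compound, 48 hours, 5 concentrations. Analysis: linear interpolation between bracketing concentrations; unreached endpoints set to highest concentration. GI50 is the concentration that inhibits growth by half. Definition used: TGI = concentration required for complete inhibition of growth.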

What was measured:
Test in all cases: NCI tumour cell line growth inhibition, 48 h
ACHN renal = tested on: ACHN renal
HCT-116 colon = tested on: HCT-116 colon
HL-60(TB) leukemia = tested on: HL-60(TB) leukemia
K-562 leukemia = tested on: K-562 leukemia
KM12 colon = tested on: KM12 colon
NCI-H23 lung = tested on: NCI-H23 lung
SF-268 CNS = tested on: SF-268 CNS
SF-539 CNS = tested on: SF-539 CNS
SNB-19 CNS = tested on: SNB-19 CNS
U251 CNS = tested on: U251 CNS

## CC[C@]12C=CCN3CC[C@@]4(c5ccc(OC)cc5N(C)[C@H]4[C@@](O)(C(=O)OC)[C@@H]1OC(=O)CCC(=O)O[C@H]1CC[C@H]4[C@@H]5CCC6=CC(=O)CC[C@@H]6[C@H]5CC[C@]14C)[C@@H]32
ACHN renal
  GI50: 1.57 µM
  TGI: > 50 µM
HCT-116 colon
  GI50: 1.55 µM
  TGI: > 50 µM
HL-60(TB) leukemia
  GI50: 1.07 µM
  TGI: 2.57 µM
K-562 leukemia
  GI50: 1.82 µM
  TGI: > 50 µM
KM12 colon
  GI50: 1.88 µM
  TGI: > 50 µM
NCI-H23 lung
  GI50: 1.98 µM
  TGI: > 50 µM
SF-268 CNS
  GI50: 2.17 µM
  TGI: > 50 µM
SF-539 CNS
  GI50: 1.75 µM
  TGI: 7.21 µM
SNB-19 CNS
  GI50: 2.31 µM
  TGI: > 50 µM
U251 CNS
  GI50: 1.91 µM
  TGI: > 50 µM

## C=C(C)COc1ccc2c(c1)CCC1C2CCC2(C)C(=O)/C(=N/O)CC12 (configuration not stated)
ACHN renal
  TGI: 15.2 µM
HCT-116 colon
  TGI: 3.08 µM
HL-60(TB) leukemia
  TGI: 5.92 µM
K-562 leukemia
  TGI: 9.96 µM
KM12 colon
  TGI: 5.77 µM
NCI-H23 lung
  TGI: 15.5 µM
SF-268 CNS
  TGI: 23.3 µM
SF-539 CNS
  TGI: 26.3 µM
SNB-19 CNS
  TGI: 25.4 µM
U251 CNS
  TGI: 16.3 µM

## CC(C)c1cnc(-c2cc(Cl)ccc2F)cc1Nc1ccncc1C(=O)NC(CO)CO
ACHN renal
  GI50: 11.1 µM
  TGI: 29 µM
HCT-116 colon
  GI50: 12.5 µM
  TGI: 28.5 µM
HL-60(TB) leukemia
  GI50: 20.1 µM
  TGI: 60.7 µM
K-562 leukemia
  GI50: 12.3 µM
  TGI: 46.5 µM
KM12 colon
  GI50: 17.7 µM
  TGI: 37.4 µM
NCI-H23 lung
  GI50: 13.9 µM
  TGI: 33.5 µM
SF-268 CNS
  GI50: 12.3 µM
  TGI: 33 µM
SF-539 CNS
  GI50: 15 µM
  TGI: 29.9 µM
SNB-19 CNS
  GI50: 15.6 µM
  TGI: 54 µM
U251 CNS
  GI50: 14.9 µM
  TGI: 33.9 µM

## Cn1c2c(c3ccccc31)CCN1C[C@@H]3CCCC[C@H]3C[C@@H]21
ACHN renal
  GI50: 4.32 µM
  TGI: > 100 µM
HCT-116 colon
  GI50: 3.19 µM
  TGI: > 31.2 µM
HL-60(TB) leukemia
  GI50: 2.27 µM
  TGI: > 28.4 µM
K-562 leukemia
  GI50: 2.07 µM
  TGI: > 36 µM
KM12 colon
  GI50: 2.97 µM
  TGI: 9.97 µM
NCI-H23 lung
  GI50: 3.55 µM
  TGI: > 100 µM
SF-268 CNS
  GI50: 3.22 µM
  TGI: > 40.2 µM
SF-539 CNS
  GI50: 2.87 µM
  TGI: > 30 µM
SNB-19 CNS
  GI50: 5.15 µM
  TGI: > 100 µM
U251 CNS
  GI50: 2.51 µM
  TGI: > 100 µM

## Cc1cc(S(=O)(=O)Nc2nc3ccccc3c(=O)n2Cc2ccco2)c(S)cc1Cl
ACHN renal
  GI50: 49.8 µM
  TGI: > 100 µM
HCT-116 colon
  GI50: 42.3 µM
  TGI: > 100 µM
HL-60(TB) leukemia
  GI50: 74.3 µM
  TGI: > 100 µM
K-562 leukemia
  GI50: 49.7 µM
  TGI: > 100 µM
KM12 colon
  GI50: 30.1 µM
  TGI: > 100 µM
NCI-H23 lung
  GI50: 46 µM
  TGI: > 100 µM
SF-268 CNS
  GI50: 40.6 µM
  TGI: > 100 µM
SF-539 CNS
  GI50: 31.5 µM
  TGI: 84.5 µM
SNB-19 CNS
  TGI: > 100 µM
U251 CNS
  GI50: 45.8 µM
  TGI: > 100 µM

## CCN1CCN(Cc2ccc(Nc3ncc(F)c(-c4cc(F)c5nc(C)n(C(C)C)c5c4)n3)nc2)CC1
ACHN renal
  GI50: 0.172 µM
  TGI: 9.56 µM
HCT-116 colon
  GI50: 0.336 µM
  TGI: 11.7 µM
HL-60(TB) leukemia
  GI50: 2.82 µM
  TGI: 13.2 µM
K-562 leukemia
  GI50: 5.85 µM
  TGI: 21 µM
KM12 colon
  GI50: 0.56 µM
  TGI: 9.29 µM
NCI-H23 lung
  GI50: 3.26 µM
  TGI: 15.2 µM
SF-268 CNS
  GI50: 5.32 µM
  TGI: 13.9 µM
SF-539 CNS
  GI50: 7.39 µM
  TGI: 15.7 µM
SNB-19 CNS
  GI50: 5.48 µM
  TGI: 12.4 µM
U251 CNS
  GI50: 0.317 µM
  TGI: 11.6 µM

## COc1cc(-c2oc3c(OC)c(O)c(OC)c(O)c3c(=O)c2OC)cc(OC)c1OC
ACHN renal
  TGI: > 100 µM
HCT-116 colon
  TGI: > 100 µM
HL-60(TB) leukemia
  TGI: > 100 µM
K-562 leukemia
  TGI: > 100 µM
KM12 colon
  TGI: > 100 µM
NCI-H23 lung
  TGI: > 100 µM
SF-268 CNS
  TGI: 71.5 µM
SF-539 CNS
  TGI: > 100 µM
SNB-19 CNS
  TGI: > 100 µM
U251 CNS
  TGI: > 100 µM

## CC(=O)Oc1ccc(C2OC(c3ccc4ccccc4c3OC(C)=O)=NN2C(C)=O)c(OC(C)=O)c1 (configuration not stated)
ACHN renal
  GI50: 0.264 µM
  TGI: > 100 µM
HCT-116 colon
  GI50: 0.328 µM
  TGI: > 40.2 µM
HL-60(TB) leukemia
  GI50: 0.267 µM
  TGI: 4.82 µM
K-562 leukemia
  GI50: 0.402 µM
  TGI: > 48.6 µM
KM12 colon
  GI50: 0.536 µM
  TGI: > 57.6 µM
NCI-H23 lung
  GI50: 1.28 µM
  TGI: 97.4 µM
SF-268 CNS
  GI50: 0.31 µM
  TGI: > 46 µM
SF-539 CNS
  GI50: 0.342 µM
  TGI: 12.3 µM
SNB-19 CNS
  GI50: 0.56 µM
  TGI: > 100 µM
U251 CNS
  GI50: 0.316 µM
  TGI: 30.4 µM

## CC(=O)OC(C(=O)[O][Ge]([CH3])([CH3])[CH3])c1ccccc1 (configuration not stated)
ACHN renal
  GI50: > 100 µM
  TGI: > 100 µM
HCT-116 colon
  GI50: > 100 µM
  TGI: > 100 µM
HL-60(TB) leukemia
  TGI: > 100 µM
K-562 leukemia
  GI50: > 100 µM
  TGI: > 100 µM
KM12 colon
  GI50: > 100 µM
  TGI: > 100 µM
NCI-H23 lung
  GI50: > 100 µM
  TGI: > 100 µM
SF-268 CNS
  GI50: > 100 µM
  TGI: > 100 µM
SF-539 CNS
  GI50: > 100 µM
  TGI: > 100 µM
SNB-19 CNS
  GI50: > 100 µM
  TGI: > 100 µM
U251 CNS
  GI50: > 100 µM
  TGI: > 100 µM

## CCc1ccc(Oc2c(-c3ccc(OCCc4cccc(C(F)(F)F)c4)cc3O)n[nH]c2C(F)(F)F)cc1
ACHN renal
  GI50: 2.18 µM
  TGI: 7.66 µM
HCT-116 colon
  GI50: 1.53 µM
  TGI: 5.47 µM
HL-60(TB) leukemia
  GI50: 5.2 µM
  TGI: 12.9 µM
K-562 leukemia
  GI50: 1.8 µM
  TGI: 6.1 µM
KM12 colon
  GI50: 4.2 µM
  TGI: 10.8 µM
NCI-H23 lung
  GI50: 1.53 µM
  TGI: 5.89 µM
SF-268 CNS
  GI50: 5.02 µM
  TGI: 11 µM
SF-539 CNS
  GI50: 7.39 µM
  TGI: 14 µM
SNB-19 CNS
  GI50: 2.69 µM
  TGI: 9.03 µM
U251 CNS
  GI50: 1.81 µM
  TGI: 6.44 µM

## CCCCCCCCCCCCC(O)C1CCC(C(O)CCCCC(O)CCCCCC2CC(CC(C)=O)C(=O)O2)O1 (configuration not stated)
ACHN renal
  TGI: 26.1 µM
HCT-116 colon
  GI50: 1.93 µM
  TGI: 14.8 µM
HL-60(TB) leukemia
  GI50: 1.29 µM
  TGI: 4.02 µM and 2.75 µM
K-562 leukemia
  GI50: 1.35 µM
  TGI: 7.7 µM
KM12 colon
  GI50: 7.64 µM
  TGI: 4.89 µM and 20.5 µM
NCI-H23 lung
  TGI: 13.6 µM
SF-268 CNS
  GI50: 1.37 µM
  TGI: 4.45 µM and 17.1 µM
SF-539 CNS
  GI50: 2.36 µM
  TGI: 21.1 µM
SNB-19 CNS
  TGI: 15.3 µM
U251 CNS
  TGI: 18.2 µM

## Cc1c(O)cccc1C(=O)N[C@@H](CSc1ccccc1)[C@H](O)CN1C[C@H]2CCCC[C@H]2C[C@H]1C(=O)NC(C)(C)C
ACHN renal
  GI50: 3.02 µM and 5.69 µM
  TGI: 13.1 µM and 17.1 µM
HCT-116 colon
  GI50: 4.27 µM and 5.97 µM
  TGI: 16 µM and 17.9 µM
HL-60(TB) leukemia
  GI50: 2.95 µM and 3.43 µM
  TGI: > 26 µM and 13.6 µM
K-562 leukemia
  GI50: 3.35 µM and 10.3 µM
  TGI: > 100 µM and 31.3 µM
KM12 colon
  GI50: 3.45 µM and 4.99 µM
  TGI: 10.4 µM and 20.1 µM
NCI-H23 lung
  GI50: 6.68 µM and 7 µM
  TGI: 30.6 µM and 26.3 µM
SF-268 CNS
  GI50: 4.5 µM and 5.97 µM
  TGI: 15.8 µM and 26 µM
SF-539 CNS
  GI50: 6.35 µM and 5.55 µM
  TGI: 22.2 µM and 16.2 µM
SNB-19 CNS
  GI50: 3.17 µM and 6.96 µM
  TGI: 16.1 µM and > 43.8 µM
U251 CNS
  GI50: 3.79 µM and 4.25 µM
  TGI: 14.5 µM and 14.7 µM

## CC(C)[C@@]12C[C@@H](OC(=O)COC(=O)c3ccccc3)[C@@](C)(O1)[C@@H]1CC[C@@H](C)[C@H]1[C@@H]2OC(=O)/C=C/c1ccccc1
ACHN renal
  GI50: 0.0469 µM
HCT-116 colon
  GI50: > 100 µM
  TGI: > 100 µM
HL-60(TB) leukemia
  GI50: > 75.1 µM
  TGI: > 100 µM
K-562 leukemia
  GI50: 62.7 µM
  TGI: > 100 µM
KM12 colon
  GI50: > 100 µM
  TGI: > 100 µM
NCI-H23 lung
  GI50: > 100 µM
  TGI: > 100 µM
SF-268 CNS
  TGI: > 100 µM
SF-539 CNS
  GI50: > 100 µM
  TGI: > 100 µM
SNB-19 CNS
  GI50: > 100 µM
  TGI: > 100 µM
U251 CNS
  GI50: > 100 µM
  TGI: > 100 µM
